Earlier results in patent publication US20060093571A1, “Hair and skin protecting compositions based on esters or ethers of betulin” (priority 2004, published 2006).

What was measured:
[1] = target: T1, elastase (Homo sapiens, UniProt P08246); details: known from literature
T1 sequence (P08246 30-247 limits assumed): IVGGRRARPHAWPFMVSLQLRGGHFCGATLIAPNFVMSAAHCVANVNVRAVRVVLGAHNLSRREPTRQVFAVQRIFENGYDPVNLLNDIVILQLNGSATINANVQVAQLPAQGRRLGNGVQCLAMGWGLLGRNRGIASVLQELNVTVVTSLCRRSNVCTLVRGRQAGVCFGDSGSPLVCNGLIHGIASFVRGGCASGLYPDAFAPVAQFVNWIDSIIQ

solubility in polar and non-polar solvents | inhibition of enzymatic activity of elastase [1] | SMILES
poor solubility | – | C=C(C)[C@@H]1CC[C@]2(C(=O)O)CC[C@]3(C)[C@H](CC[C@@H]4[C@@]5(C)CC[C@H](O)C(C)(C)[C@@H]5CC[C@]43C)[C@@H]12 [betulinic acid]
poor solubility | inhibit | CC1(C)CC[C@]2(C(=O)O)CC[C@]3(C)C(=CC[C@@H]4[C@@]5(C)CC[C@H](O)C(C)(C)[C@@H]5CC[C@]43C)[C@@H]2C1 [oleanolic acid]
poor solubility | inhibit | C[C@H]1[C@H](C)CC[C@]2(C(=O)O)CC[C@]3(C)C(=CC[C@@H]4[C@@]5(C)CC[C@H](O)C(C)(C)[C@@H]5CC[C@]43C)[C@H]12 [ursolic acid]

SMILES | solubility in polar and non-polar solvents | inhibition of enzymatic activity of elastase [1]
C=C(C)[C@@H]1CC[C@]2(CO)CC[C@]3(C)[C@H](CC[C@@H]4[C@@]5(C)CC[C@H](O)C(C)(C)[C@@H]5CC[C@]43C)[C@@H]12 [Betulin] | poor solubility | inhibit
